# Experimental data: patent US11919965B2, “Methods of treating multiple myeloma with bispecific anti-BCMA x anti-CD3 antibodies” (Regeneron Pharmaceuticals, Inc., priority 2019, dated 2024)
# Read-outs that look alike come from different tables or passages of the source.
# Key:
# [1] = test system: primary multiple myeloma blast cells; assay: FACS cytotoxicity assay, autologous T cell-mediated killing of primary multiple myeloma blast cells; format: cell-based, human; details: for EC50: read-out: MM Lysis EC50
# Protocol: In order to monitor the specific killing of multiple myeloma cells by flow cytometry, bone marrow mononuclear cells (BMMC) from multiple myeloma patients were plated on human stromal cells (HS5) and rested overnight at 37 C. Separately, matching patient peripheral blood mononuclear cells (PBMC) were thawed and cultured in supplemented RPMI media at 1×10^6 cells/mL overnight at 37° C. in order to enrich for lymphocytes by depleting adherent cells. The next day, BMMC were co-incubated with adherent cell-depleted naïve PBMC on stromal cells (HS5) and a serial 10× dilution of BCMA×CD3 bispecific or 1-arm CD3 isotype control (starting concentration 66.7 nM) at 37° C. Cells were removed from cell culture plates at day 3, 4 or 7 and analyzed by FACS. For the assessment of specificity of killing, multiple myeloma cells were gated as single, live, CD90 negative (to exclude stromal cells), CD2 negative, CD56 positive. CD45 was low on multiple myeloma cells in most samples except MM455. Percent of live target cells was reported for the calculation of adjusted survival as follows: Adjusted survival=(R1/R2)*100, where R1=% live target cells in the presence of antibody, and R2=% live target cells in the absence of test antibody.
# T cells were gated as CD2 positive, CD56 negative and either CD4 or CD8 positive. T cell activation was reported as the percent of CD25+CD4 or CD8 T cells out of total CD4 or CD8 T cells.
# [2] = test system: established BCMA-expressing NCI-H929 multiple myeloma tumors; assay: Xenogenic tumor model, established NCI-H929 tumors + human PBMC in NSG mice, treatment from day 5 (Example 12); format: in vivo, mouse; details: for Average Tumor Size (mm3) ± SEM on Day 5: day of first dose
# Protocol: To determine the in vivo efficacy of anti-BCMA×anti-CD3 bispecific antibodies (Abs), a xenogenic tumor study was performed. Immunodeficient NOD.Cg-Prkdc^scidII2rg^tm1Wjl/SzJ (NSG) mice were subcutaneously implanted with a mixture of 10×10^6 BCMA-expressing NCI-H929 human multiple myeloma tumor cells and 0.5×10^6 human peripheral blood mononuclear cells (PBMC) isolated from a normal, healthy donor. The tumors were allowed to grow and establish for 5 days until they were approximately 70 mm^3 in size. […] The mice were administered these Abs twice per week for a total of seven doses, and tumor growth was assessed over 55 days.
# Implantation and measurement of xenogenic tumors: NSG mice were subcutaneously implanted with a mixture of 10×10^6 BCMA-expressing NCI-H929 multiple myeloma cells and 0.5×10^6 PBMC derived from a normal, healthy donor. The tumors were allowed to grow and establish for 5 days until they were approximately 70 mm^3 in size. […] The mice were administered Abs twice per week for a total of seven doses. Tumor growth was measured with calipers twice per week for the duration of the experiment.
# (§1) Calculation of xenogenic tumor growth and inhibition: In order to determine tumor volume by external caliper, the greatest longitudinal diameter (length in mm) and the greatest transverse diameter (width in mm) were determined. Tumor volumes based on caliper measurements were calculated by the formula: Volume (mm^3)=(length× width^2)/2.
# [3] = test system: BCMA-expressing NCI-H929 multiple myeloma tumors; assay: Xenogenic tumor model, NCI-H929 + human PBMC s.c. in NSG mice, treatment from implantation (Example 10); format: in vivo, mouse; details: 4 mg/kg
# Protocol: To determine the in vivo efficacy of BCMA×CD3 bispecific antibodies (Abs), a xenogenic tumor study was performed. Immunodeficient NOD.Cg-Prkdc^scidII2rgtm1Wjl/SzJ (NSG) mice were subcutaneously implanted with a mixture of 10×10^6 BCMA-expressing NCI-H929 multiple myeloma cells and 0.5×10^6 human peripheral blood mononuclear cells (PBMC) isolated from a normal donor. […] The mice were administered Abs twice per week for a total of three weeks, and tumor growth was assessed over 40 days. While BCMA^+ tumors grew similarly in the vehicle-, isotype control-, and CD3-binding control-treated mice, both BCMA×CD3 Abs that were tested prevented the growth of tumors in vivo.
# Implantation and measurement of syngeneic tumors: NSG mice were subcutaneously implanted with a mixture of 10×10^6 BCMA-expressing NCI-H929 multiple myeloma cells and 0.5×10^6 PBMC derived from a normal donor. […] The mice were administered Abs twice per week for a total of three weeks. Tumor growth was measured with calipers twice per week for the duration of the experiment. Mice were sacrificed 40 days after tumor implantation.
# as §1, with “syngeneic” for “xenogenic”
# [4] = Sample MM2, newly diagnosed, E:T 1.4, 7 days
# [5] = Sample MM369, newly diagnosed, E:T 0.3, 3 days
# [6] = Sample MM453, newly diagnosed, E:T 2.4, 3 days
# [7] = Sample MM455, progression, treated, E:T 0.4, 3 days
substance,measurement,setting,value
"REGN5458: anti-BCMA×anti-CD3 bispecific antibody: mAb21581 BCMA heavy chain, mAb7221G CD3 heavy chain and common light chain; SEQ ID NOs 126, 127, 129",EC50,"[1]; Sample MM2, E:T 1.4, 7 days",0.747 nM
same,% MM lysis at 66 nM,[1]; [4],88%
same,% MM lysis at 66 nM,[1]; [5],96%
same,EC50,"[1]; Sample MM453, E:T 2.4, 3 days",0.0989 nM
same,% MM lysis at 66 nM,[1]; [6],82%
same,EC50,"[1]; Sample MM455, E:T 0.4, 3 days",3.67 nM
same,% MM lysis at 66 nM,[1]; [7],63%
same,Average Tumor Size (mm3) ± SEM on Day 8,[2]; 0.04 mg/kg,130.3 ± 16.7 mm3
same,Average Tumor Size (mm3) ± SEM on Day 15,[2]; 0.04 mg/kg,1031.2 ± 164.3 mm3
same,Average Tumor Size (mm3) ± SEM on Day 19,[2]; 0.04 mg/kg,2467.5 ± 370.0 mm3
same,Average Tumor Size (mm3) ± SEM on Day 22,[2]; 0.04 mg/kg,3745.7 ± 541.2 mm3
same,Average Tumor Size (mm3) ± SEM on Day 27,[2]; 0.04 mg/kg,1589.1 ± 0 mm3
same,Average Tumor Size (mm3) ± SEM on Day 30,[2]; 0.04 mg/kg,2886.5 ± 0 mm3
same,Average Tumor Size (mm3) ± SEM on Day 5,[2]; 0.04 mg/kg,58.1 ± 5.6 mm3
same,Average Tumor Size (mm3) ± SEM on Day 8,[2]; 0.4 mg/kg,120.3 ± 16.3 mm3
same,Average Tumor Size (mm3) ± SEM on Day 12,[2]; 0.4 mg/kg,262.7 ± 61.6 mm3
same,Average Tumor Size (mm3) ± SEM on Day 15,[2]; 0.4 mg/kg,476.2 ± 133.5 mm3
same,Average Tumor Size (mm3) ± SEM on Day 19,[2]; 0.4 mg/kg,1347.5 ± 334.7 mm3
same,Average Tumor Size (mm3) ± SEM on Day 22,[2]; 0.4 mg/kg,2068.5 ± 465.0 mm3
same,Average Tumor Size (mm3) ± SEM on Day 27,[2]; 0.4 mg/kg,3463.9 ± 1025.0 mm3
same,Average Tumor Size (mm3) ± SEM on Day 30,[2]; 0.4 mg/kg,2144.2 ± 2144.2 mm3
same,Average Tumor Size (mm3) ± SEM on Day 35,[2]; 0.4 mg/kg,0 ± 0 mm3
same,Average Tumor Size (mm3) ± SEM on Day 40,[2]; 0.4 mg/kg,0 ± 0 mm3
same,Average Tumor Size (mm3) ± SEM on Day 55,[2]; 0.4 mg/kg,0 ± 0 mm3
same,Average Tumor Size (mm3) ± SEM on Day 5,[2]; 0.4 mg/kg,69.3 ± 7.3 mm3
same,Average Tumor Size (mm3) ± SEM on Day 8,[2]; 4 mg/kg,64.7 ± 16.4 mm3
same,Average Tumor Size (mm3) ± SEM on Day 12,[2]; 4 mg/kg,19.5 ± 10.9 mm3
same,Average Tumor Size (mm3) ± SEM on Day 15,[2]; 4 mg/kg,25.6 ± 19.2 mm3
same,Average Tumor Size (mm3) ± SEM on Day 19,[2]; 4 mg/kg,40.6 ± 32.8 mm3
same,Average Tumor Size (mm3) ± SEM on Day 22,[2]; 4 mg/kg,78.3 ± 60.8 mm3
same,Average Tumor Size (mm3) ± SEM on Day 30,[2]; 4 mg/kg,411.3 ± 307.2 mm3
same,Average Tumor Size (mm3) ± SEM on Day 35,[2]; 4 mg/kg,633.5 ± 473.5 mm3
same,Average Tumor Size (mm3) ± SEM on Day 40,[2]; 4 mg/kg,369.5 ± 369.5 mm3
same,Average Tumor Size (mm3) ± SEM on Day 55,[2]; 4 mg/kg,0 ± 0 mm3
same,Average Tumor Size (mm3) ± SEM on Day 5,[2]; 4 mg/kg,71.9 ± 10.3 mm3
same,Average Tumor Size (mm3) ± SEM on Day 4,[3],39.5 ± 9.1 mm3
same,Average Tumor Size (mm3) ± SEM on Day 7,[3],0 ± 0 mm3
same,Average Tumor Size (mm3) ± SEM on Day 11,[3],0 ± 0 mm3
same,Average Tumor Size (mm3) ± SEM on Day 14,[3],0 ± 0 mm3
same,Average Tumor Size (mm3) ± SEM on Day 18,[3],0 ± 0 mm3
same,Average Tumor Size (mm3) ± SEM on Day 21,[3],0 ± 0 mm3
same,Average Tumor Size (mm3) ± SEM on Day 28,[3],0 ± 0 mm3
same,Average Tumor Size (mm3) ± SEM on Day 40,[3],0 ± 0 mm3
"REGN5459: anti-BCMA×anti-CD3 bispecific antibody: mAb21581 BCMA heavy chain, mAb7221G20 CD3 heavy chain and common light chain; SEQ ID NOs 126, 128, 129",EC50,"[1]; Sample MM2, E:T 1.4, 7 days",7.24 nM
same,% MM lysis at 66 nM,[1]; [4],85%
same,EC50,"[1]; Sample MM369, E:T 0.3, 3 days",0.496 nM
same,% MM lysis at 66 nM,[1]; [5],94%
same,EC50,"[1]; Sample MM453, E:T 2.4, 3 days",1.19 nM
same,% MM lysis at 66 nM,[1]; [6],80%
same,EC50,"[1]; Sample MM455, E:T 0.4, 3 days",79.4 nM
same,% MM lysis at 66 nM,[1]; [7],52%
same,Average Tumor Size (mm3) ± SEM on Day 8,[2]; 0.04 mg/kg,152.3 ± 20.0 mm3
same,Average Tumor Size (mm3) ± SEM on Day 12,[2]; 0.04 mg/kg,462.5 ± 57.7 mm3
same,Average Tumor Size (mm3) ± SEM on Day 15,[2]; 0.04 mg/kg,1094.2 ± 78.9 mm3
same,Average Tumor Size (mm3) ± SEM on Day 19,[2]; 0.04 mg/kg,2412.5 ± 184.6 mm3
same,Average Tumor Size (mm3) ± SEM on Day 22,[2]; 0.04 mg/kg,3285.9 ± 227.3 mm3
same,Average Tumor Size (mm3) ± SEM on Day 5,[2]; 0.04 mg/kg,74.9 ± 6.4 mm3
same,Average Tumor Size (mm3) ± SEM on Day 8,[2]; 0.4 mg/kg,171.9 ± 23.2 mm3
same,Average Tumor Size (mm3) ± SEM on Day 12,[2]; 0.4 mg/kg,233.8 ± 63.5 mm3
same,Average Tumor Size (mm3) ± SEM on Day 15,[2]; 0.4 mg/kg,327.2 ± 135.6 mm3
same,Average Tumor Size (mm3) ± SEM on Day 19,[2]; 0.4 mg/kg,606.2 ± 288.8 mm3
same,Average Tumor Size (mm3) ± SEM on Day 22,[2]; 0.4 mg/kg,815.4 ± 387.1 mm3
same,Average Tumor Size (mm3) ± SEM on Day 27,[2]; 0.4 mg/kg,1849.9 ± 903.1 mm3
same,Average Tumor Size (mm3) ± SEM on Day 30,[2]; 0.4 mg/kg,661.8 ± 490.1 mm3
same,Average Tumor Size (mm3) ± SEM on Day 35,[2]; 0.4 mg/kg,996.8 ± 771.0 mm3
same,Average Tumor Size (mm3) ± SEM on Day 40,[2]; 0.4 mg/kg,375.6 ± 375.6 mm3
same,Average Tumor Size (mm3) ± SEM on Day 55,[2]; 0.4 mg/kg,0 ± 0 mm3
same,Average Tumor Size (mm3) ± SEM on Day 5,[2]; 0.4 mg/kg,69.5 ± 4.1 mm3
same,Average Tumor Size (mm3) ± SEM on Day 8,[2]; 4 mg/kg,45.8 ± 9.8 mm3
same,Average Tumor Size (mm3) ± SEM on Day 15,[2]; 4 mg/kg,0 ± 0 mm3
same,Average Tumor Size (mm3) ± SEM on Day 19,[2]; 4 mg/kg,0 ± 0 mm3
same,Average Tumor Size (mm3) ± SEM on Day 22,[2]; 4 mg/kg,0 ± 0 mm3
same,Average Tumor Size (mm3) ± SEM on Day 27,[2]; 4 mg/kg,0 ± 0 mm3
same,Average Tumor Size (mm3) ± SEM on Day 30,[2]; 4 mg/kg,0 ± 0 mm3
same,Average Tumor Size (mm3) ± SEM on Day 35,[2]; 4 mg/kg,0 ± 0 mm3
same,Average Tumor Size (mm3) ± SEM on Day 40,[2]; 4 mg/kg,0 ± 0 mm3
same,Average Tumor Size (mm3) ± SEM on Day 55,[2]; 4 mg/kg,0 ± 0 mm3
same,Average Tumor Size (mm3) ± SEM on Day 5,[2]; 4 mg/kg,61.8 ± 5.2 mm3
same,Average Tumor Size (mm3) ± SEM on Day 4,[3],26.5 ± 6.2 mm3
same,Average Tumor Size (mm3) ± SEM on Day 7,[3],0 ± 0 mm3
same,Average Tumor Size (mm3) ± SEM on Day 11,[3],0 ± 0 mm3
same,Average Tumor Size (mm3) ± SEM on Day 14,[3],0 ± 0 mm3
same,Average Tumor Size (mm3) ± SEM on Day 18,[3],0 ± 0 mm3
same,Average Tumor Size (mm3) ± SEM on Day 21,[3],0 ± 0 mm3
same,Average Tumor Size (mm3) ± SEM on Day 28,[3],0 ± 0 mm3
same,Average Tumor Size (mm3) ± SEM on Day 40,[3],0 ± 0 mm3
